# Where two headings read alike, the source gives them in different places.
# Assays:
# [1] = test system: adjuvant-induced arthritis; conditions: male Lewis rats, oral, bid; cited from earlier work
# [2] = Partitioning between plasma and erythrocytes, 14C-labeled compound; assay type: in vitro ADME
# Method: Alternatively, partitioning between plasma and erythrocytes was determined by using a ^14C-labeled compound of Formula I and whole blood withdrawn as heparinized. Scintillation counting was used for analysis in place of HPLC.
# [3] = Repeat dose toxicity study in rats; assay type: in vivo, rat
# [4] = Pharmacokinetic studies in rats; assay type: in vivo; conditions: rat, plasma
# Method: Pharmacokinetic Studies in Rats: An appropriate amount of a compound suspended in 1% aqueous methylcelluose solution was administered to male SD rats by oral gavage. Blood samples were collected from the retro-orbital sinus at designated time points over 0 to 24 hours post dose. Plasma was separated from each withdrawn blood sample by centrifugation and the plasma sample was stored at 4° C. until HPLC analysis for the quantification of the compound. The plasma samples were analyzed by reverse phase HPLC using an appropriate internal standard and a pre-established calibration curve.
# [5] = Plasma protein binding, filtration method, 14C-labeled compound; assay type: in vitro ADME; conditions: Sprague-Dawley (SD), rat, broad range of concentrations
# Method: Alternatively, plasma protein binding was determined by a filtration method employing a ^14C-labeled compound of Formula I. Scintillation counting was used for analysis in place of HPLC.
# [6] = molecular target: T1, Human CA I (Homo sapiens, UniProt P00915); experiment: Inhibition assay for CA (Method B, esterase activity), CA I; assay type: biochemical; conditions: p-nitrophenylacetate hydrolysis, pH 7.6
# T1 construct: purchased Sigma C-6165
# T1 sequence (P00915 whole entry): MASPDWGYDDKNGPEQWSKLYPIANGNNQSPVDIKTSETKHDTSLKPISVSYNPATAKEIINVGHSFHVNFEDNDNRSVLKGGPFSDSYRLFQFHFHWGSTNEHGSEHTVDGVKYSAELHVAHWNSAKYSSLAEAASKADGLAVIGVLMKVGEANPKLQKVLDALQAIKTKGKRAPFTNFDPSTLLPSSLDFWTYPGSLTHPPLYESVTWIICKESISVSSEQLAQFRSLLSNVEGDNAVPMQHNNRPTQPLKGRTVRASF
# Method: (§1) Compounds of Formula I were assessed for their inhibitory activities against human CAs according to methods described in a literature and a prior art. […] Details of the employed assay methods (Method A and Method B) for the inhibition of CAs are provided in the section of “MATERIALS AND METHODS” of this invention. Provided below are some of compounds of Formula I assayed for the inhibition of CAs. [drawing 6] [drawing 7] [drawing 8]
# (§2) DMSO and buffer agents were obtained from Sigma. Distilled water was prepared in-house by distilling deionized water.
# (§3) The employed method is briefly described as follows. An aqueous reaction mixture consisting of 2 Wilbur-Anderson units of CA, 4 mM p-nitrophenylacetate, 5% DMSO, 0.1 M Na2SO4, and 50 mM Tris-HCl buffer at pH 7.6 was prepared to contain a designated amount of inhibitor. The esterase activity of CA (the hydrolysis of p-nitrophenylacetate) was followed by the increases in absorbance at 405 nm using an ELISA reader at room temperature. The initial rate (slope of the initial absorbance data) data from the absorbance data were used to calculate % inhibition of CA at a designated concentration of inhibitor according to equation (7). % Inhibition=[1−(Initial Rate with Inhibitor)/(Initial Rate without Inhibitor)]×100 (7)
# [7] = Repeat dose toxicity study in monkeys
# Method: Toxicokinetic studies were performed with treatment groups in monkeys. Satellite toxicokinetic groups were used for the toxicokinetic studies of treatment groups in rats. Animals at terminal sacrifice were evaluated for histopathological findings in the GI tract and other organs.
# [8] = Plasma protein binding, filtration method, HPLC; assay type: in vitro ADME; conditions: male, SD; pooled rat plasma at 1 μg/ml
# Method: Plasma Protein Binding of Compound: Plasma protein binding was determined for a compound of Formula I by a filtration method. An aliquot of a compound stock solution in DMSO was added to a designated volume of freshly prepared pooled plasma from male SD rats. The plasma solution was then subjected to filtration using a centrifuge filter (Amicon YM-30) at 4000 g for 30 min. The filtrate was analyzed by HPLC to determine the concentration of the compound.
# [9] = test system: carrageenan-induced thermal hyperalgesia; conditions: male SD rats, orally administered; cited from earlier work
# [10] = molecular target: T2, Human CA II (Homo sapiens, UniProt P00918); experiment: Inhibition assay for CA (Method A), CA II; assay type: biochemical; conditions: CO2 hydration, phenol red
# T2 construct: purchased Sigma C-4936
# Method: as §1, §2
# (§4) Inhibition Assay for CA (Method A): CA inhibitory activities by COX-2 inhibitors of this invention were assessed by a previously reported method. […] Then the interval was measured from the initiation of the reaction to the point of the color change of the solution from purple to yellow. During the entire reaction, the reaction solution was kept bubbled with CO2.
# [11] = molecular target: T1, Human CA I; experiment: Inhibition assay for CA (Method A), CA I; assay type: biochemical; conditions: CO2 hydration, phenol red
# Method: as §1, §2, §4
# [12] = molecular target: T2, Human CA II; experiment: Inhibition assay for CA (Method B, esterase activity), CA II; assay type: biochemical; conditions: p-nitrophenylacetate hydrolysis, pH 7.6
# Method: as §1, §2, §3
# [13] = cited from earlier work; for primary target sites of the GI adverse events: repeated oral administrations
# [14] = cited from earlier work
# [15] = test system: intraocular pressure; conditions: oral administration, hypertensive rabbits; cited from earlier work
# [16] = human whole blood, FDA pharmacology review; cited from earlier work
# [17] = FDA pharmacology review; valdecoxib in human whole blood; cited from earlier work
# [18] = repeated oral administrations for 4 weeks
compound,measurement,setting,value
"CC1(C)OC(c2ccc(S(N)(=O)=O)cc2)=C(c2cccc(F)c2)C1=O [Example 1, 5-{4-(aminosulfonyl)phenyl}-2,2-dimethyl-4-(3-fluorophenyl)-3(2H)furanone]",ED50 by adjuvant-induced arthritis,[1],0.1 mg/kg/day
same,distribution to erythrocytes over plasma,[2],even more preferentially distribute to erythrocytes over plasma
same,primary target site of the intestinal adverse findings,[3],caecum
same,dose limiting adverse effects,"[3]; oral, up to 4 weeks",Intestinal adverse effects (primarily in the caecum)
same,daily systemic exposure without positive histopathological findings in the stomach,[3]; [18],"~30,000 hr×ng/ml"
same,histopathological findings in the stomach,"[3]; repeated oral administrations for 4 weeks, daily systemic exposure of ca 30,000 hr×ng/ml",no positive histopathological findings in the stomach
same,Cmax,"[4]; male, SD, oral, 0.05 mg/kg, 82 ng/ml divided by 20, read-out: Cmax calculated for 0.1 mg/kg/day, bid (0.05 mg/kg)",4.1 ng/mL
same,Cmax,"[4]; oral 1 mg/kg, male SD rats, read-out: plasma Cmax",82 ng/mL
same,fraction unbound,[5],~0.1
same,IC50,[6],290 nM
same,histopathological findings in the stomach,"[7]; 4 weeks, one out of 18 subjects",one case of focal mucosal degeneration in the stomach
same,daily systemic exposure of the subject with the histopathological finding in the stomach,[7]; final day of the treatment,"> 20,000 hr×ng/ml"
same,histopathological findings in the intestines,[7]; [18],not associated with positive histopathological findings in the intestines
same,fraction unbound at 1 μg/ml,[8],< 0.01
same,ED50 in carrageenan-induced thermal hyperalgesia,[9],0.25 mg/kg
same,IC50,[10],800 nM
same,IC50,[11],3000 nM
same,IC50,[12],63 nM
"CC1(C)OC(c2ccc(S(N)(=O)=O)cc2)=C(c2cc(F)ccc2F)C1=O [Example 2, 5-{4-(aminosulfonyl)phenyl}-4-(2,5-difluorophenyl)-2,2-dimethyl-3(2H)furanone]",IC50,[10],740 nM
same,IC50,[11],3200 nM
"CC1(C)OC(c2ccc(S(N)(=O)=O)c(F)c2)=C(c2cccc(F)c2)C1=O [Example 4, 5-{4-(aminosulfonyl)-3-fluorophenyl}-2,2-dimethyl-4-(3-fluorophenyl)-3(2H)furanone]",IC50,[6],210 nM
same,IC50,[10],450 nM
same,IC50,[11],1700 nM
same,IC50,[12],27 nM
"CC1(C)OC(c2ccc(S(N)(=O)=O)c(F)c2)=C(c2cc(F)ccc2F)C1=O [Example 5, 5-{4-(aminosulfonyl)-3-fluorophenyl}-4-(2,5-difluorophenyl)-2,2-dimethyl-3(2H)furanone]",IC50,[6],240 nM
same,IC50,[10],480 nM
same,IC50,[11],1300 nM
same,IC50,[12],14 nM
"CC1(C)OC(c2ccc(S(N)(=O)=O)c(F)c2)=C(c2ccc(F)c(F)c2)C1=O [Example 6, 5-{4-(aminosulfonyl)-3-fluorophenyl}-4-(3,4-difluorophenyl)-2,2-dimethyl-3(2H)furanone]",IC50,[10],910 nM
same,IC50,[11],5000 nM
"CC1(C)OC(c2ccc(S(N)(=O)=O)c(F)c2)=C(c2cc(F)cc(F)c2)C1=O [Example 7, 5-{4-(aminosulfonyl)-3-fluorophenyl}-4-(3,5-difluorophenyl)-2,2-dimethyl-3(2H)furanone]",IC50,[10],630 nM
same,IC50,[11],3400 nM
"CC1(C)OC(c2ccc(S(N)(=O)=O)cc2F)=C(c2ccc(F)cc2)C1=O [Example 8, 5-{4-(aminosulfonyl)-2-fluorophenyl}-2,2-dimethyl-4-(4-fluorophenyl)-3(2H)furanone]",IC50,[10],420 nM
same,IC50,[11],1900 nM
"CC1(C)OC(c2ccc(S(N)(=O)=O)cc2F)=C(c2cc(F)cc(F)c2)C1=O [Example 9, 5-{4-(aminosulfonyl)-2-fluorophenyl}-4-(3,5-difluorophenyl)-2,2-dimethyl-3(2H)furanone]",IC50,[10],630 nM
same,IC50,[11],4700 nM
"Cc1cc(C2=C(c3cccc(F)c3)C(=O)C(C)(C)O2)ccc1S(N)(=O)=O [Example 10, 5-{4-(aminosulfonyl)-3-methylphenyl}-2,2-dimethyl-4-(3-fluorophenyl)-3(2H)furanone]",IC50,[10],5400 nM
same,IC50,[11],9100 nM
Cc1cnc(NC(=O)C2=C(O)c3ccccc3S(=O)(=O)N2C)s1 [Meloxicam],primary target sites of the GI adverse events,[13]; rats,duodenum
Cc1ccc(-c2cc(C(F)(F)F)nn2-c2ccc(S(N)(=O)=O)cc2)cc1 [celecoxib],thromboembolic events,"[14]; 400 mg/day and 800 mg/day, long term cancer prevention trial (APC)",increases in the thromboembolic events
same,gastric toxicity,"[13]; rat, in vivo",not associated with gastric toxicity
same,primary target sites of the GI adverse events,[13]; rats,jejunum and ileum
O=C(O)Cc1ccccc1Nc1c(Cl)cccc1Cl [diclofenac],effect on intraocular pressure,[15],failed to reduce the intraocular pressure
"COc1ccc2c(c1)c(CC(=O)O)c(C)n2C(=O)c1ccc(Cl)cc1 [indomethacin, reference compound]",ED50 by adjuvant-induced arthritis,[1],0.3 mg/kg/day
same,ED50 in carrageenan-induced thermal hyperalgesia,[9],~1.0 mg/kg
CS(=O)(=O)c1ccc(C2=C(c3ccccc3)C(=O)OC2)cc1 [rofecoxib],thromboembolic cardiovascular events,"[14]; 25 mg/day, long term cancer prevention trial (APPROVe)",increased risk of thromboembolic cardiovascular events
same,gastric toxicity,"[13]; rats, doses where the intestinal toxicity began to come out",not associated with gastric toxicity
same,primary target sites of the GI adverse events,[13]; rats,jejunum and ileum
same,distribution ratio erythrocytes over plasma,[16],no noticeable preferential distribution
same,plasma protein binding,[17],87%
Cc1onc(-c2ccccc2)c1-c1ccc(S(N)(=O)=O)cc1 [valdecoxib],thromboembolic events,"[14]; acute use, coronary artery bypass graft patients",increase in the thromboembolic events
same,gastric toxicity,"[13]; rat, in vivo",not associated with gastric toxicity
same,plasma protein binding,[17],98%
same,effect on intraocular pressure,[15],reduced intraocular pressure

# Source: US20050222251A1, “Dual inhibition of cyclooxygenase-2 and carbonic anhydrase” (AMOREPACIFIC CORPORATION, priority 2004, published 2005)
